The values below come from patent US8604053B2, “TRPV1 antagonists” (AbbVie Inc., priority 2008, dated 2013).

The structures appear in SMILES notation.

One series concerns the target T1, human TRPV1 (Homo sapiens, UniProt Q8NER1).
T1 construct: expressed in transfected cells; host or cells: HEK293-F cells, transient transfection
Nature of the series: Acid activation assay, ratiometric calcium imaging. The class given is cell-based. Conditions: HEK293-F cells expressing human TRPV1, Example 56 at 3 μM; for block of TRPV1-mediated increase in intracellular calcium concentration in response to pH 5.5: acid pH 5.5; for block of TRPV1-mediated increase in intracellular calcium concentration in response to capsaicin: capsaicin 1 μM. On the procedure:
The differential effects of TRPV1 antagonists on capsaicin- or acid-induced responses were verified by ratiometric calcium imaging. Transiently transfected HEK293-F cells expressing human TRPV1 were incubated with 5 μM Fura-2AM for 30 minutes at 37° C. Intracellular calcium concentration was measured on an imaging system consisting of the X-Cite™ 120 Fluorescence Illumination System (EXFO) and a Digital Camera (C4742-95, Hamamatsu Photonics) connected to an Olympus 1×71 microscope. Through the control of Slide Book 4.2 software, fluorescence was measured during excitation at 340 and 380 nm; the ratio of the fluorescence at both excitation wavelengths (F340/F380) was monitored. D-PBS, pH 7.4 (Invitrogen, catalog no. 14287) was used as the extracellular solution. Acidic buffer was prepared by titrating D-PBS, pH 7.4 with 7 N HCl to pH 5.5. Agonists and antagonists were prepared in the pH 7.4 or 5.5 solutions. Rapid solution switch was achieved by using a ValveLink system.
Over the time 1250-second course, the cells were challenged sequentially with solutions containing Example 56 (3 μM), Example 56 (3 μM) plus capsaicin (1 μM), Example 56 (3 μM) plus acid (pH 5.5), or acid (pH 5.5) alone. The black bars above the traces designate addition and duration of solution applications. Spaces between horizontal bars represent periods in which cells were perfused with D-PBS, pH 7.4 alone. […]
In general terms: A change in cytosolic calcium serves as a functional read-out for many receptors and channels.

Series [1] has as its target T2, human TRPV1 receptor (hTRPV1) (Homo sapiens, UniProt Q8NER1).
T2 construct: expressed in transfected cells
Nature of the series: Capsaicin activation assay (Ca2+ influx, FLIPR). In kind it is cell-based. Conditions: hTRPV1 in 1321N1 cells, 0.05 μM capsaicin. On the procedure: Dulbecco's modified Eagle medium (D-MEM) (with 4.5 mg/mL glucose) and fetal bovine serum were obtained from Hyclone Laboratories, Inc. (Logan, Utah). Dulbecco's phosphate-buffered saline (D-PBS) (with 1 mg/mL glucose and 3.6 mg/l Na pyruvate, without phenol red), L-glutamine, hygromycin B, and Lipofectamine® were obtained from Life Technologies (Grand Island, N.Y.). G418 sulfate was obtained from Calbiochem-Novabiochem Corp. (San Diego, Calif.). Capsaicin (8-methyl-N-vanillyl-6-nonenamide) was obtained from Sigma-Aldrich, Co. (St. Louis, Mo.). Fluo-4 AM (N-[4-[6-[(acetyloxy)methoxy]-2,7-difluoro-3-oxo-3H-xanthen-9-yl]-2-[2-[2-[bis[2-[(acetyloxy)methoxy]-2-oxyethyl]amino]-5-methyl-phenoxy[ethoxy]phenyl]-N-[2-[(acetyloxy)methoxy]-2-oxyethyl]-glycine, (acetyloxy)methyl ester) was purchased from Molecular Probes (Eugene, Oreg.).
The cDNAs for the human TRPV1 receptor (hTRPV1) were isolated by reverse transcriptase-polymerase chain reaction (RT-PCR) from human small intestine poly A+ RNA supplied by Clontech (Palo Alto, Calif.) using primers designed surrounding the initiation and termination codons identical to the published sequences (Hayes et al. Pain 2000, 88, 205-215). The resulting cDNA PCR products were subcloned into pClneo mammalian expression vector (Promega) and fully sequenced using fluorescent dye-terminator reagents (Prism, Perkin-Elmer Applied Biosystems Division) and a Perkin-Elmer Applied Biosystems Model 373 DNA sequencer or Model 310 genetic analyzer. Expression plasmids encoding the hTRPV1 cDNA were transfected individually into 1321N1 human astrocytoma cells using Lipofectamine®. Forty-eight hours after transfection, the neomycin-resistant cells were selected with growth medium containing 800 μg/mL Geneticin (Gibco BRL). Surviving individual colonies were isolated and screened for TRPV1 receptor activity. Cells expressing recombinant homomeric TRPV1 receptors were maintained at 37° C. in D-MEM containing 4 mM L-glutamine, 300 μg/mL G418 (Cal-biochem) and 10% fetal bovine serum under a humidified 5% CO2 atmosphere.
The functional activity of compounds at the TRPV1 receptor was determined with a Ca^2+ influx assay and measurement of intracellular Ca^2+ levels ([Ca^2+]i). All compounds were tested over an 11-point half-log concentration range. Compound solutions were prepared in D-PBS (4× final concentration), and diluted serially across 96-well v-bottom tissue culture plates using a Biomek 2000 robotic automation workstation (Beckman-Coulter, Inc., Fullerton, Calif.). A 0.2 μM solution of the TRPV1 agonist capsaicin was also prepared in D-PBS. The fluorescent Ca^2+ chelating dye Fluo-4 AM was used as an indicator of the relative levels of [Ca^2+]i in a 96-well format using a Fluorescence Imaging Plate Reader (FLIPR)(Molecular Devices, Sunnyvale, Calif.). Cells were grown to confluency in 96-well black-walled tissue culture plates. Then, prior to the assay, the cells were loaded with 100 μL per well of Fluo-4 AM (2 μM, in D-PBS) for 1-2 hours at 23° C. Washing of the cells was performed to remove extracellular Fluo-4 AM (2×1 mL D-PBS per well), and afterward, the cells were placed in the reading chamber of the FLIPR instrument. 50 μL of the compound solutions were added to the cells at the 10 second time mark of the experimental run. Then, after a 3-minute time delay, 50 μL of the capsaicin solution was added at the, 190 second time mark (0.05 μM final concentration)(final volume=200 μL) to challenge the TRPV1 receptor. Time length of the experimental run was 240 seconds. Fluorescence readings were made at 1 to 5 second intervals over the course of the experimental run. The peak increase in relative fluorescence units (minus baseline) was calculated from the 190 second time mark to the end of the experimental run, and expressed as a percentage of the 0.05 μM capsaicin (control) response. […]

A short description of series [2]: Rat telemetry protocol, core body temperature. Conditions: core body temperature of rats one hour post dosing, 100 μmol/kg p.o., relative to vehicle. The class given is in vivo. On the procedure:
Male, Sprague Dawley rats, 225-250 grams were anesthetized with Sevoflurane (Abbott Laboratories). Rats were placed on a heating pad and covered with a sterile surgical drape. A ventral midline abdominal incision was made and sterile cotton tip applicators were used to gently move internal tissue and expose the abdominal aorta for implantation of the telemetry catheter (Data Sciences International; TL11M2-050-PXT). Blood flow was temporarily stopped to the lower extremities (5-7 min) with Diffenbach clamps to allow the insertion of the telemetry catheter into the abdominal aorta. Once inserted, a sterile cellulose patch was placed over the catheter/aorta and secured using a small amount of tissue adhesive (Vetbond, 3M). Once catheter placement was complete, the clamps were removed and blood flow was restored to the lower extremities. Thetransmitter was placed in the intraperitoneal cavity. The transmitter suture rib was sewn into the abdominal sutures to secure it in place. The skin was closed using sterile wound clips and the animal removed from Sevoflurane. Buprenex ([…] s.c.; Phoenix) was administered for post-operative analgesia. Animals were maintained on a heating pad until ambulatory, and then individually housed with food and water ad lib. Surgical staples were removed after 7-10 days post-implantation. Rats were allowed a 2-week post-surgical recovery period before treatment with test compound. Oral dosing (p.o.) was at time zero, with rats receiving a single dose of vehicle (10% EtOH, 20% Tween-80, 70% PEG-400) or a 100 μmol/kg dose of compound dissolved in vehicle. Temperature measurements were recorded every 15 minutes for the duration of the study (24 hours).
Representative compounds described herein have the novel property of having limited transient temperature effect on core body temperature of a mammal (e.g. rats). For example, compounds tested alter core body temperature of rats by less than about +0.5° C. at about 1 hour after administration of a single dose (100 μmol/kg) of the test compounds orally, for example, in the range from about −2.5° C. to less than about +0.5° C., from about −0.5° C. to less than about +0.5° C.; or from about −0.3° C. to about +0.3° C.
The term “core body temperature” as used herein, means the temperature measured in the intraperitoneal cavity.

T1 sequence (Q8NER1 whole entry): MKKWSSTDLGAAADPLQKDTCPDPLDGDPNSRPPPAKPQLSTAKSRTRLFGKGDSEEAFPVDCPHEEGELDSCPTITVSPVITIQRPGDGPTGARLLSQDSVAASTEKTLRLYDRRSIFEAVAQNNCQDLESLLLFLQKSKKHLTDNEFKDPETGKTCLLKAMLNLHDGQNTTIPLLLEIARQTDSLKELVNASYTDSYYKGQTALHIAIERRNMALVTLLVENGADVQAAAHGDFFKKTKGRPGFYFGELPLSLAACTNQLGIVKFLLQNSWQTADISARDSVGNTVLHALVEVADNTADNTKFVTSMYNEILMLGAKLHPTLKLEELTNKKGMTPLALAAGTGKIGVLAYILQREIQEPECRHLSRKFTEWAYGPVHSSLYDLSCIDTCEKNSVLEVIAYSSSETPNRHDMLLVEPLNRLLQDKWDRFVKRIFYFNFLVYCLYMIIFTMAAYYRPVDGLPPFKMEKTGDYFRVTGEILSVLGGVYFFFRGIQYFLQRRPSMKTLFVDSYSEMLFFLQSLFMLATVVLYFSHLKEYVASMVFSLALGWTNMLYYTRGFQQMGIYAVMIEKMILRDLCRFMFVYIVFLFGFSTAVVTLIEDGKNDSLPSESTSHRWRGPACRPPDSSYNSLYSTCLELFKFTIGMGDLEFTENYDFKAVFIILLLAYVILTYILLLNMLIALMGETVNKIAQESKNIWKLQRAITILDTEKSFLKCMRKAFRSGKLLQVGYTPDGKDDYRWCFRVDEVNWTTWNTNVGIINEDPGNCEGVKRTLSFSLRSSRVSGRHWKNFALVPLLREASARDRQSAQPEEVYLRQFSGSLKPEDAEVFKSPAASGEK
T2 sequence (Q8NER1 whole entry): as above

Consider `CC(=O)Nc1nc2c(Oc3cc(N4CCN(C(C)c5ccc(F)cc5)CC4)ncn3)cccc2s1` (centres unmarked) [AMG 628, reference compound], for which, on human TRPV1, the “block of TRPV1-mediated increase in intracellular calcium concentration in response to pH 5.5” value was “completely blocked” and the “block of TRPV1-mediated increase in intracellular calcium concentration in response to capsaicin” value is “completely blocked”.
The term IC50 denotes the concentration at which inhibition is half-maximal. Read a low IC50 as inhibition by little substance. With `CCC1(CC)C[C@@H](NC(=O)Nc2cccc3c2cnn3C)c2cc(F)ccc2O1` [Example 26, N-[(4R)-2,2-diethyl-6-fluoro-3,4-dihydro-2H-chromen-4-yl]-N′-(1-methyl-1H-indazol-4-yl)urea], the midpoint of inhibition in series [1], the IC50, lay at 50 nM. Besides, at human TRPV1, the “block of TRPV1-mediated increase in intracellular calcium concentration in response to pH 5.5” value was “did not completely block” and the “block of TRPV1-mediated increase in intracellular calcium concentration in response to capsaicin” value is on record as “completely blocked”. For the same compound, in series [2], the “Δ Temp (° C.)” value was determined as 0.1 °C.
The corresponding values for `CCC1(CC)C[C@@H](NC(=O)Nc2cccc3c2cnn3C)c2cccc(OC(F)(F)F)c2O1` [Example 55, N-[(4R)-2,2-diethyl-8-(trifluoromethoxy)-3,4-dihydro-2H-chromen-4-yl]-N′-(1-methyl-1H-indazol-4-yl)urea] are 16 nM, “did not completely block”, “completely blocked” and 0.3 °C.
For `CCCC1(CCC)C[C@@H](NC(=O)Nc2cccc3c2cnn3C)c2cc(F)ccc2O1` [Example 61, N-[(4R)-6-fluoro-2,2-dipropyl-3,4-dihydro-2H-chromen-4-yl]-N′-(1-methyl-1H-indazol-4-yl)urea], in that order: 31 nM, “did not completely block”, “completely blocked” and 0.3 °C.
